According to US12077503B2, “Substituted cyclic amides and their use as herbicides” (FMC CORPORATION, priority 2015, dated 2024):

What was measured:
Assay type in all cases: in vivo
[1] = system: barnyardgrass (Echinochloa crus-galli); assay: Test G Pre-Emergence Protocol; conditions: Echinochloa crus-galli, pre-emergence, 312 h, evaluated after 13 days; for pest or weed control at 15.625 g/ha: 15.625 g ai/ha; for pest or weed control at 15.625 g/ha / pest or weed control at 250 g/ha: read-out: Barnyardgrass damage rating (100=total damage to plant; 0=no damage to plant); for pest or weed control at 62.5 g/ha: 62.5 g ai/ha, 100=total damage to plant, 0=no damage to plant, read-out: Barnyardgrass damage rating; for pest or weed control at 250 g/ha: 250 g ai/ha
Summary of the method: (§1)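 Scores are visual damage ratings from 0 (no damage) to 100 (total plant kill), taken 13 days after treatment. Compound was sprayed one day post-sowing at 15.625, 62.5 or 250 g/ha in 50:50 acetone/water with 0.5% Tween 20.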

corn (Zea mays) [2] = assay: Test G Pre-Emergence Protocol; conditions: Zea mays, pre-emergence, 312 h, evaluated after 13 days; for plant injury at 15.625 g/ha: 15.625 g ai/ha; for plant injury at 15.625 g/ha / plant injury at 250 g/ha: read-out: Corn damage rating (100=total damage to plant; 0=no damage to plant); for plant injury at 62.5 g/ha: 62.5 g ai/ha, 100=total damage to plant, 0=no damage to plant, read-out: Corn damage rating; for plant injury at 250 g/ha: 250 g ai/ha
Summary of the method: as §1

[3] = system: giant foxtail (Setaria faberi); assay: Test G Pre-Emergence Protocol; conditions: Setaria faberi, pre-emergence, 312 h, evaluated after 13 days; for pest or weed control at 15.625 g/ha: 15.625 g ai/ha; for pest or weed control at 15.625 g/ha / pest or weed control at 250 g/ha: read-out: Foxtail, Giant damage rating (100=total damage to plant; 0=no damage to plant); for pest or weed control at 62.5 g/ha: 62.5 g ai/ha, 100=total damage to plant, 0=no damage to plant, read-out: Foxtail, Giant damage rating; for pest or weed control at 250 g/ha: 250 g ai/ha
Summary of the method: as §1

[4] = system: ivy-leaved morning glory (Ipomoea hederacea); assay: Test G Pre-Emergence Protocol; conditions: Ipomoea, pre-emergence, 312 h, evaluated after 13 days; for pest or weed control at 15.625 g/ha: 15.625 g ai/ha; for pest or weed control at 15.625 g/ha / pest or weed control at 250 g/ha: read-out: Morningglory, Ivy-leaved damage rating (100=total damage to plant; 0=no damage to plant); for pest or weed control at 62.5 g/ha: 62.5 g ai/ha, 100=total damage to plant, 0=no damage to plant, read-out: Morningglory, Ivy-leaved damage rating; for pest or weed control at 250 g/ha: 250 g ai/ha
Summary of the method: as §1

[5] = system: redroot pigweed (Amaranthus retroflexus); assay: Test G Pre-Emergence Protocol; conditions: Amaranthus retroflexus, pre-emergence, 312 h, evaluated after 13 days; for pest or weed control at 15.625 g/ha: 15.625 g ai/ha; for pest or weed control at 15.625 g/ha / pest or weed control at 250 g/ha: read-out: Pigweed, Redroot damage rating (100=total damage to plant; 0=no damage to plant); for pest or weed control at 62.5 g/ha: 62.5 g ai/ha, 100=total damage to plant, 0=no damage to plant, read-out: Pigweed, Redroot damage rating; for pest or weed control at 250 g/ha: 250 g ai/ha
Summary of the method: as §1

[6] = system: velvetleaf (Abutilon theophrasti); assay: Test G Pre-Emergence Protocol; conditions: Abutilon theophrasti, pre-emergence, 312 h, evaluated after 13 days; for pest or weed control at 15.625 g/ha: 15.625 g ai/ha; for pest or weed control at 15.625 g/ha / pest or weed control at 250 g/ha: read-out: Velvetleaf damage rating (100=total damage to plant; 0=no damage to plant); for pest or weed control at 62.5 g/ha: 62.5 g ai/ha, 100=total damage to plant, 0=no damage to plant, read-out: Velvetleaf damage rating; for pest or weed control at 250 g/ha: 250 g ai/ha
Summary of the method: as §1

[7] = system: barnyardgrass (Echinochloa crus-galli); assay: Test G Post-Emergence Protocol; conditions: Echinochloa crus-galli, post-emergence, 312 h, read-out: Barnyardgrass damage rating; for pest or weed control at 15.625 g/ha: 15.625 g ai/ha, evaluated after 13 days (100=total damage to plant; 0=no damage to plant); for pest or weed control at 62.5 g/ha: 62.5 g ai/ha; for pest or weed control at 62.5 g/ha / pest or weed control at 250 g/ha: evaluated after 13 days, 100=total damage to plant, 0=no damage to plant; for pest or weed control at 250 g/ha: 250 g ai/ha
Summary of the method: (§2)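 Foliar application was made 8 days after sowing, using an aqueous spray of the active in acetone/water (50:50) with 0.5% Tween 20, at doses of 15.625, 62.5 or 250 g/ha. Injury was assessed 13 days later, where 100 meant the plant was fully damaged.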

corn (Zea mays) [8] = assay: Test G Post-Emergence Protocol; conditions: Zea mays, post-emergence, 312 h, read-out: Corn damage rating; for plant injury at 15.625 g/ha: 15.625 g ai/ha, evaluated after 13 days (100=total damage to plant; 0=no damage to plant); for plant injury at 62.5 g/ha: 62.5 g ai/ha; for plant injury at 62.5 g/ha / plant injury at 250 g/ha: evaluated after 13 days, 100=total damage to plant, 0=no damage to plant; for plant injury at 250 g/ha: 250 g ai/ha
Summary of the method: as §2

[9] = system: giant foxtail (Setaria faberi); assay: Test G Post-Emergence Protocol; conditions: Setaria faberi, post-emergence, 312 h, read-out: Foxtail, Giant damage rating; for pest or weed control at 15.625 g/ha: 15.625 g ai/ha, evaluated after 13 days (100=total damage to plant; 0=no damage to plant); for pest or weed control at 62.5 g/ha: 62.5 g ai/ha
Summary of the method: as §2

[10] = system: ivy-leaved morning glory (Ipomoea hederacea); assay: Test G Post-Emergence Protocol; conditions: Ipomoea, post-emergence, 312 h, read-out: Morningglory, Ivy-leaved damage rating; for pest or weed control at 15.625 g/ha: 15.625 g ai/ha, evaluated after 13 days (100=total damage to plant; 0=no damage to plant); for pest or weed control at 62.5 g/ha: 62.5 g ai/ha; for pest or weed control at 62.5 g/ha / pest or weed control at 250 g/ha: evaluated after 13 days, 100=total damage to plant, 0=no damage to plant; for pest or weed control at 250 g/ha: 250 g ai/ha
Summary of the method: as §2

[11] = system: redroot pigweed (Amaranthus retroflexus); assay: Test G Post-Emergence Protocol; conditions: Amaranthus retroflexus, post-emergence, 312 h, read-out: Pigweed, Redroot damage rating; for pest or weed control at 15.625 g/ha: 15.625 g ai/ha, evaluated after 13 days (100=total damage to plant; 0=no damage to plant); for pest or weed control at 62.5 g/ha: 62.5 g ai/ha; for pest or weed control at 62.5 g/ha / pest or weed control at 250 g/ha: evaluated after 13 days, 100=total damage to plant, 0=no damage to plant; for pest or weed control at 250 g/ha: 250 g ai/ha
Summary of the method: as §2

[12] = system: velvetleaf (Abutilon theophrasti); assay: Test G Post-Emergence Protocol; conditions: Abutilon theophrasti, post-emergence, 312 h, read-out: Velvetleaf damage rating; for pest or weed control at 15.625 g/ha: 15.625 g ai/ha, evaluated after 13 days (100=total damage to plant; 0=no damage to plant); for pest or weed control at 62.5 g/ha: 62.5 g ai/ha; for pest or weed control at 62.5 g/ha / pest or weed control at 250 g/ha: evaluated after 13 days, 100=total damage to plant, 0=no damage to plant; for pest or weed control at 250 g/ha: 250 g ai/ha
Summary of the method: as §2

[13] = evaluated after 13 days, 100=total damage to plant, 0=no damage to plant

CCOc1cc([C@@H]2CN(C)C(=O)[C@H]2C(=O)Nc2cccc(F)c2C)ccc1C(F)(F)F (racemic) [Compound 1787]
30%: plant injury at 15.625 g/ha (corn (Zea mays) [8])
40%: plant injury at 250 g/ha (corn (Zea mays) [2]) | pest or weed control at 15.625 g/ha [9] | pest or weed control at 250 g/ha [12]
90%: pest or weed control at 250 g/ha [1] | pest or weed control at 250 g/ha [3]
20%: plant injury at 15.625 g/ha (corn (Zea mays) [2]) | plant injury at 62.5 g/ha (corn (Zea mays) [2]) | pest or weed control at 250 g/ha [4] | pest or weed control at 250 g/ha [5] | pest or weed control at 250 g/ha [6] | pest or weed control at 15.625 g/ha [7] | pest or weed control at 15.625 g/ha [11] | pest or weed control at 62.5 g/ha [11] | pest or weed control at 15.625 g/ha [12] | pest or weed control at 62.5 g/ha [12]
10%: pest or weed control at 62.5 g/ha [6]
50%: pest or weed control at 15.625 g/ha [1] | plant injury at 62.5 g/ha (corn (Zea mays) [8]) | pest or weed control at 15.625 g/ha [10]
70%: pest or weed control at 62.5 g/ha [3] | pest or weed control at 62.5 g/ha [9, 13] | pest or weed control at 62.5 g/ha [10] | pest or weed control at 250 g/ha [10] | pest or weed control at 250 g/ha [11]
0%: pest or weed control at 15.625 g/ha [4] | pest or weed control at 62.5 g/ha [4] | pest or weed control at 15.625 g/ha [5] | pest or weed control at 62.5 g/ha [5] | pest or weed control at 15.625 g/ha [6]
60%: pest or weed control at 62.5 g/ha [1] | pest or weed control at 15.625 g/ha [3] | pest or weed control at 62.5 g/ha [7] | pest or weed control at 250 g/ha [7] | plant injury at 250 g/ha (corn (Zea mays) [8])

CN1C[C@H](c2ccc(C(F)(F)F)cc2)[C@@H](C(=O)Nc2cccnc2S(C)(=O)=O)C1=O (racemic) [Compound 1789]
0%: pest or weed control at 15.625 g/ha [1] | pest or weed control at 62.5 g/ha [1] | pest or weed control at 250 g/ha [1] | plant injury at 15.625 g/ha (corn (Zea mays) [2]) | plant injury at 62.5 g/ha (corn (Zea mays) [2]) | pest or weed control at 15.625 g/ha [3] | pest or weed control at 62.5 g/ha [3] | pest or weed control at 250 g/ha [3] | pest or weed control at 15.625 g/ha [4] | pest or weed control at 62.5 g/ha [4] | pest or weed control at 250 g/ha [4] | pest or weed control at 15.625 g/ha [5] | pest or weed control at 62.5 g/ha [5] | pest or weed control at 15.625 g/ha [6] | pest or weed control at 62.5 g/ha [6] | pest or weed control at 15.625 g/ha [7] | pest or weed control at 62.5 g/ha [7] | pest or weed control at 250 g/ha [7] | plant injury at 15.625 g/ha (corn (Zea mays) [8]) | plant injury at 62.5 g/ha (corn (Zea mays) [8]) | pest or weed control at 15.625 g/ha [9] | pest or weed control at 62.5 g/ha [9, 13] | pest or weed control at 15.625 g/ha [10] | pest or weed control at 62.5 g/ha [10] | pest or weed control at 250 g/ha [10] | pest or weed control at 15.625 g/ha [11] | pest or weed control at 62.5 g/ha [11] | pest or weed control at 15.625 g/ha [12] | pest or weed control at 62.5 g/ha [12]
20%: pest or weed control at 250 g/ha [5] | pest or weed control at 250 g/ha [6] | pest or weed control at 250 g/ha [11] | pest or weed control at 250 g/ha [12]
10%: plant injury at 250 g/ha (corn (Zea mays) [2]) | plant injury at 250 g/ha (corn (Zea mays) [8])

Cc1c(F)cccc1NC(=O)[C@@H]1C(=O)N(C)C[C@H]1c1cc(Cl)c(F)c(Cl)c1 (racemic) [Compound 1792]
70%: pest or weed control at 62.5 g/ha [1] | pest or weed control at 62.5 g/ha [7] | pest or weed control at 250 g/ha [7] | pest or weed control at 15.625 g/ha [9]
30%: pest or weed control at 15.625 g/ha [1] | pest or weed control at 15.625 g/ha [7] | pest or weed control at 62.5 g/ha [10]
10%: pest or weed control at 15.625 g/ha [10]
60%: plant injury at 250 g/ha (corn (Zea mays) [8])
40%: plant injury at 62.5 g/ha (corn (Zea mays) [8]) | pest or weed control at 250 g/ha [10] | pest or weed control at 250 g/ha [12]
90%: pest or weed control at 250 g/ha [3]
20%: plant injury at 62.5 g/ha (corn (Zea mays) [2]) | plant injury at 15.625 g/ha (corn (Zea mays) [8]) | pest or weed control at 62.5 g/ha [12]
80%: pest or weed control at 250 g/ha [1] | pest or weed control at 15.625 g/ha [3] | pest or weed control at 62.5 g/ha [3] | pest or weed control at 62.5 g/ha [9, 13] | pest or weed control at 250 g/ha ([9]; 250 g ai/ha, evaluated after 13 days, 100=total damage to plant, 0=no damage to plant)
50%: plant injury at 250 g/ha (corn (Zea mays) [2])
0%: plant injury at 15.625 g/ha (corn (Zea mays) [2]) | pest or weed control at 15.625 g/ha [4] | pest or weed control at 62.5 g/ha [4] | pest or weed control at 250 g/ha [4] | pest or weed control at 15.625 g/ha [5] | pest or weed control at 62.5 g/ha [5] | pest or weed control at 250 g/ha [5] | pest or weed control at 15.625 g/ha [6] | pest or weed control at 62.5 g/ha [6] | pest or weed control at 250 g/ha [6] | pest or weed control at 15.625 g/ha [11] | pest or weed control at 62.5 g/ha [11] | pest or weed control at 250 g/ha [11] | pest or weed control at 15.625 g/ha [12]
